The conditions of data set [1]: some solvents (Jacobsen et al, 2016a); cited from earlier work.
Data set [2] in a line: Safety and tolerability of IV 5-HTP continuous infusion. Format: in vivo, human. As for the experimental part:
Methods: Safety and tolerability of the IV 5-HTP continuous infusion were assessed during the 24 hr administration of IV 5-HTP infusion (see Example 5) or placebo and approximately 24 hr after end of the infusion. Safety and tolerability of the IV 5-HTP infusion were assessed by monitoring of adverse events (AEs), standard clinical safety laboratory tests, electrocardiograms (ECG), vital signs, and clinical scales of suicidality. The safety population included all subjects. Vital sign measurements included systolic blood pressure (mmHg), diastolic blood pressure (mmHg), heart rate (beats/min), respiratory rate (breaths/min), and oral temperature. Twelve-lead electrocardiogram measurements were performed in triplicate. The recorded parameters included heart rate (beats/min), PR (msec), QRS (msec), and QTcF (msec). Assessments were rated as normal, not clinically significant, or clinically significant. Clinical laboratory tests included a complete blood count, chemistry panel, coagulation panel, and thyroid stimulating hormone.
Statistics: Descriptive statistics (n, mean, SD, minimum, and maximum) for absolute values and changes from baseline were calculated.

A short description of another data set: Solubility of 5-HTP. Format: physicochemical. The following applies: water, read-out: aqueous solubility. As for the experimental part: The aqueous solubility of 5-HTP is approximately 10 mg/ml. However, 5-HTP has been reported to be soluble to up to about 100 mg/ml in some solvents (Jacobsen et al, 2016a). In some embodiments, the concentration of 5-HTP in the infusion solutions (i.e., the infusate fluids) is between about 1 mg/ml and about 10 mg/ml. In some embodiments, the concentration is between about 0.1 mg/ml and about 1 mg/ml. In some embodiments, the concentration is between about 10 mg/ml and about 100 mg/ml.

Data set [3] in a line: Dose-proportionality assessment (power model) of IV 5-HTP continuous infusion. In kind it is in vivo, human. To be noted: doses up to 3 mg/kg/24 hr. From the text:
Background: The term dose proportionality denotes a proportional and linear relationship between dose and a pharmacokinetic measure, for the specific (i) dose-range, (i) dosing route, and (iii) dosing regimen investigated. More particularly, if doubling the dose doubles the pharmacokinetic measure of maximal (CMax) or total (AUC) systemic exposure to the compound administered, then dose proportionality is present, at least within the dose ranges examined. […] The relationship between dose and plasma compound concentration (C (e.g., CMax or AUC)) can be described via the following equation: C=α dose^β When β=1, dose proportionality is present. If so, C=α dose. α is a constant relating dose to C, for a given range of C and given dose units, and is identical to the slope of the regression line. In the power model (Smith et al, 2000), dose proportionality is assessed via the following linear equation: log(C)=log(α)+β×log(dose)+error Based on standard statistical methods for linear models, estimates for β together with confidence limits can be derived. […]
Methods: Applying the approach by Smith (Smith et al, 2000), using a general linear model and SAS software Version 9.4, dose proportionality of continuously administered IV 5-HTP was assessed using the data in Table 9, below. […]

[4] abbreviates: 2 mg/kg/24 hr ramp rate infusion.
Where [5] appears, read: ramp flow rate, 1 mg/kg/24 hr, subjects with event/subjects.

In brackets after ≈: the same amount, converted by molar mass. Several values for one entry are separate records, joined by “and”; a condition that tells them apart may be missing. Equal values may be shown once.

Broadly, the solubility is the dissolved amount per volume that the medium holds. In the case of `N[C@@H](Cc1c[nH]c2ccc(O)cc12)C(=O)O` [5-HTP, 5-hydroxytryptophan], the “soluble in some solvents” value in data set [1] is recorded as “up to 100 mg/ml”. For the same compound, in data set [2] (1 mg/kg/24 hr, ramp flow rate infusion), the “subjects in whom AEs occurred” value stood at 2 subjects. In data set [2] (setting [4]), the “mild AEs: chills, subjects with event” value was 1 and 1/6; the “mild AEs: dizziness, subjects with event” value was 1 and 1/6. Further, in data set [2] (all cohorts), the “5-HTP plasma exposure with which incidence of AEs was more commonly associated” value is over 100 ng/mL and the “severity of all AEs” value was “mild-to-moderate”. The “safety findings in clinical safety laboratory tests, vital signs, 12-lead electrocardiograms” value in data set [2] (all cohorts, 24 hr IV 5-HTP infusion) is “no safety findings”. The “serious or severe AEs related to the IV 5-HTP infusion” value in data set [2] (any subjects, all cohorts) is listed as “No serious or severe AEs”. Moreover, the AEs entry in data set [2] (constant flow rate, 1 mg/kg/24 hr group) was “no AEs”. In addition, in data set [2] (human, plasma, intravenous, constant rate 3 mg/kg/24 hr, read-out: plasma 5-HTP levels within 1 h in the subjects who discontinued), the concentration at 1 h is 250 to 300 ng/mL. Besides, the “5-HTP plasma levels associated with manifestation of AEs” value in data set [2] (ramp flow rate 1 mg/kg/24 hr, at highest flow rate 55.55 ml/h) is 112 to 266 ng/mL. In data set [2] (setting [5]), the “mild AEs: nausea” value was 1/5, the “mild AEs: vomiting” value is 1/5, the “moderate AEs: nausea” value is given as 1/5 and the “moderate AEs: vomiting” value is given as 1/5. Further, the solubility in the data set “Solubility of 5-HTP” was about 10000 µg/mL (≈ 45.4 mM). Also, in data set [3], the dose proportionality entry is recorded as “dose proportionality for doses up to 3 mg/kg/24 hr was accepted”.

These data come from patent US11779567B2, “Method for optimizing 5-hydroxytryptamine function in the brain for therapeutic purposes” (Evecxia Therapeutics, Inc., priority 2021, dated 2023).
